From ChEMBL document CHEMBL2074475, “Uptake of enalapril and expression of organic anion transporting polypeptide 1 in zonal, isolated rat hepatocytes” (Drug Metab Dispos, 2000)

Experiments:
Type in all cases: functional, cell-based
[1] = molecular target: T1, Solute carrier organic anion transporter family member 1A4 (Rattus norvegicus, UniProt O35913); assay: TP_TRANSPORTER: uptake in Oatp2-expressing HeLa cells; conditions: human
T1 sequence (O35913 whole entry): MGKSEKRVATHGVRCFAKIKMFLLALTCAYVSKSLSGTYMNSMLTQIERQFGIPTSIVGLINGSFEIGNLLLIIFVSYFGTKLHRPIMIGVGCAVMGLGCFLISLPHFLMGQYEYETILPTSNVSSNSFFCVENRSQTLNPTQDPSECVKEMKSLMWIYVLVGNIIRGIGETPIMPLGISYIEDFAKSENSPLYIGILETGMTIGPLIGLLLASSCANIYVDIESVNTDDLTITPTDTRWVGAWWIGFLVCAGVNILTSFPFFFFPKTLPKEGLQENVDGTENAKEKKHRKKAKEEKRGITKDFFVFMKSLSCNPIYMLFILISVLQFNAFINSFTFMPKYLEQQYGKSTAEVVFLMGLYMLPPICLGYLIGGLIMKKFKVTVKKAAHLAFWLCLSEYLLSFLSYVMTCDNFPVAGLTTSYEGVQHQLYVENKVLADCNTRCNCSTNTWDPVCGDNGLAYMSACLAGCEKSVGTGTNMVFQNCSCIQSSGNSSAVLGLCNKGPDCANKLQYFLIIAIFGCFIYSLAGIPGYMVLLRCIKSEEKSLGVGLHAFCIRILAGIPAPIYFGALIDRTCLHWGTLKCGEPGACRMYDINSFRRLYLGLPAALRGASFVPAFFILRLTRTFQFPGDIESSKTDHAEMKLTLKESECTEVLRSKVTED

[2] = molecular target: T2, Solute carrier organic anion transporter family member 1A1 (Rattus norvegicus, UniProt P46720); assay: TP_TRANSPORTER: uptake in Oatp1-expressing HeLa cells; conditions: human
T2 sequence (P46720 whole entry): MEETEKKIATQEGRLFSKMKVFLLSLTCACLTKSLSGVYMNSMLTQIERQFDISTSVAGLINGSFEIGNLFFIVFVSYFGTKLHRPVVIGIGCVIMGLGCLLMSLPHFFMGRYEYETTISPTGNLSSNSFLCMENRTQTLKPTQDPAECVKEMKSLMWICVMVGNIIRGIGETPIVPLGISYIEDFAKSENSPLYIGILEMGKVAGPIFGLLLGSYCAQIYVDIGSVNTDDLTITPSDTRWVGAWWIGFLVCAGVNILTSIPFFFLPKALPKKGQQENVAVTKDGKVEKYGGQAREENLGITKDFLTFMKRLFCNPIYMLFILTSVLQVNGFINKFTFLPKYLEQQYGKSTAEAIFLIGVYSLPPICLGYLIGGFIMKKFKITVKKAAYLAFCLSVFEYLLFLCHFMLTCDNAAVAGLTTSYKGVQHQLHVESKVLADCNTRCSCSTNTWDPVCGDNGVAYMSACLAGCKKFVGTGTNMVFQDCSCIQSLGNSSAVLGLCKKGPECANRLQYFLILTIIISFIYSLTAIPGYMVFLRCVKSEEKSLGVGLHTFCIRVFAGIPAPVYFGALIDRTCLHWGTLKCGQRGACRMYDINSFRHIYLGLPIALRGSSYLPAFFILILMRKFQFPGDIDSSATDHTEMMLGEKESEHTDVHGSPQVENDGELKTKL

[3] = molecular target: T3, Solute carrier organic anion transporter family member 1A2 (Homo sapiens, UniProt P46721); assay: TP_TRANSPORTER: uptake in OATP-expressing HeLa cells
T3 sequence (P46721 whole entry): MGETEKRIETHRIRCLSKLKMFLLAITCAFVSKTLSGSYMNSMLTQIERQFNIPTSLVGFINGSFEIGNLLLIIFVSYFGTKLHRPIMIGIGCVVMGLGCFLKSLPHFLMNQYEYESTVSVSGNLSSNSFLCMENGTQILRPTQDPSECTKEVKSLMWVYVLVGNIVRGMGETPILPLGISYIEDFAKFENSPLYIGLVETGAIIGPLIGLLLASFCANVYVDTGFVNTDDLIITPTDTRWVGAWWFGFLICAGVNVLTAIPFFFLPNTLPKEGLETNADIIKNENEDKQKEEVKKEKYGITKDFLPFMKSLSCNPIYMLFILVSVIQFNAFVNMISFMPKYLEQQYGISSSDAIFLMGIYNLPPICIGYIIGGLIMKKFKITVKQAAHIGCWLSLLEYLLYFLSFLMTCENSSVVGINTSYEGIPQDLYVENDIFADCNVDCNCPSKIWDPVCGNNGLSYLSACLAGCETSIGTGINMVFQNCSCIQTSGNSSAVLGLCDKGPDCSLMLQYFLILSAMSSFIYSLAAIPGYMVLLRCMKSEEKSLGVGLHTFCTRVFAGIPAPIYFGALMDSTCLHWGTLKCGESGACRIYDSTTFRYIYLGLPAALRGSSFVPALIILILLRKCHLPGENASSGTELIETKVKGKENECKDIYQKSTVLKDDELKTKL

Activity [1]: is not a substrate [-] | Activity [2]: substrate [+] | Activity [3]: is not a substrate [-]
SMILES: CCOC(=O)[C@H](CCc1ccccc1)N[C@@H](C)C(=O)N1CCC[C@H]1C(=O)O [ENALAPRIL]
